“Also recorded” adds a separate entry of the source.
Tests used:
[1] = tested on: PBA and butyrate induced CAMP gene expression; test: Inhibition of PBA and butyrate induced CAMP gene expression by cycloheximide in VA10 cells; type: cell-based, human; conditions: 20 μg/ml one hour prior to stimulation, 24 hours
Experimental: VA10 cells were treated with 4 mM PBA or butyrate (BA) in the presence or absence of 20 μg/ml cycloheximide. CAMP mRNA levels were determined by real time RT-PCR. Individual samples were normalized to total RNA input. Results were normalized to expression in control samples (solvent) where controls were given the arbitrary value of one. Normalized data is plotted as mean plus standard error of the mean from at least three independent experiments. *: p<0.05; **: p<0.01; ***: p<0.001.
In order to assess whether the PBA and butyrate induction pathways of CAMP gene expression are direct, VA10 cells were treated with PBA or butyrate in the presence and absence of cycloheximide (CHX). After 24 hours of incubation, total RNA was isolated and CAMP mRNA levels measured using real time RT-PCR.

[2] = tested on: CAMP gene, encoding LL-37; test: CAMP (LL-37) mRNA expression in VA10 lung epithelial cells, real time RT-PCR; type: cell-based, human; conditions: for CAMP mRNA expression: 4 mM
Experimental: LL-37 expression in lung epithelial cells treated with different agents Lung epithelial cells (VA 10) were grown to confluency under standard conditions and the agents to be tested added at the indicated concentrations (see below). mRNA was isolated 24 hours after treatment and measured by real time reverse transcription PCR.
Six-well plates were seeded with 1.0×10^6 cells per well and grown for two days. Medium was then exchanged and different wells were left untreated, supplemented with 2 mM sodium butyrate or 2 mM sodium 4-phenylbutyrate. The cells were incubated for 48 h and total RNA was prepared using the RNEasy kit (Qiagen). Total RNA concentrations were measured using the Quant-iT RiboGreen RNA assay kit (Invitrogen). Superscript III first-strand synthesis system (Invitrogen) was used to synthesize cDNA using random primers according to the protocol of the manufacturer. […] Results were normalized to total RNA quantity, presented as relative fold induction of untreated control cells.
Total RNA was isolated from the cells and CAMP mRNA expression levels analyzed by real time RT-PCR.

[3] = tested on: PBA induced CAMP gene expression; test: Inhibition of PBA induced CAMP gene expression by MAP kinase inhibitors in VA10 cells; type: cell-based, human; conditions: 20 μM inhibitor one hour prior to 4 mM PBA, 24 hours
Experimental: FIG. 6B. […] CAMP mRNA levels were determined by real time RT-PCR. Individual samples were normalized to total RNA input. Results were normalized to expression in control samples where controls were given the arbitrary value of one. Normalized data is plotted as mean+SE from three independent experiments. *: P<0.05; **: P<0.01; ***: P<0.001
The effect of inhibitors for c-Jun N-terminal kinase (JNK), p38 kinase and extracellular signal-regulated kinase ½ (ERK½) on PBA induced CAMP gene expression were also investigated as shown in FIG. 6B. One hour prior to stimulation with 4 mM PBA, VA10 cells were pre incubated with 20 μM SP600125, SB203580 or U0126 to inhibit the respective kinases. After 24 hours of incubation, total RNA was isolated and analyzed by real time RT-PCR for CAMP mRNA.

[4] = tested on: shigellosis; CAP-18 (the rabbit homologue of LL-37); conditions: rabbits; cited from earlier work
[5] = tested on: defensin; conditions: similar concentrations, FIG. 7 of US2002-0076393; cited from earlier work
[6] = cited from earlier work; for safety of topical (enema) dosing: 528 mg/day to 1.12 g/day, 2-6 weeks, adult IBD patients
[7] = tested on: LL-37 mRNA; conditions: colonocytes in vitro; cited from earlier work
[8] = tested on: cathelicidin; conditions: 4000 IU/d oral for 21 days, atopic dermatitis subjects; cited from earlier work
[9] = tested on: CAMP mRNA in U937 (Human leukemic monocyte lymphoma cell line); test: CAMP gene expression by PBA in U937 cells; type: cell-based; conditions: 4 mM, 8, 24 and 48 hours
Experimental: (§1) FIG. 3: Induction of CAMP gene mRNA expression by PBA. A) VA10 cells were stimulated with the indicated concentrations of PBA or solvent (Control) for 24 hours. B) VA10 cells were stimulated with 4 mM PBA or treated with solvent alone and harvested after the indicated period of time. C) A498, HT-29 and U937 cells were stimulated with 4 mM PBA or solvent only and harvested after the indicated period of time. CAMP mRNA levels were determined by real time RT-PCR. Individual samples were normalized to total RNA input. Results were normalized to expression in control samples where controls were given the arbitrary value of one. The normalized data is plotted as mean+SE from at least three independent experiments.
(§2) In order to investigate the effect of PBA on other cell lines, HT-29 (Human colonic adenocarcinoma cell line), […] (Human renal carcinoma cell line) and U937 (Human leukemic monocyte lymphoma cell line) were stimulated with 4 mM PBA for 8, 24 and 48 hours. Total RNA was isolated from the cells and CAMP mRNA expression levels analyzed by real time RT-PCR.

[10] = tested on: VDR co-activator genes; test: VDR co-activator mRNA levels in VA10 cells, real time RT-PCR; type: cell-based, human; conditions: 4 mM, 24 hours
Experimental: (§3) VA10 cells were stimulated with 4 mM of PBA or solvent alone (Control) for 24 hours. mRNA levels of the respective VDR co-activators were determined by real time RT-PCR. Individual samples were normalized to total RNA input. Results were normalized to expression in control samples where controls were given the arbitrary value of one. Data is normalized to control and plotted as mean+SE from three independent experiments.
Hypothesizing that the synergistic effect between PBA and 1,25(OH)2D3 was due to an induction of VDR co-activator genes by PBA, we analyzed the effect of PBA on mRNA levels of several known VDR co-activator genes in VA10. […] These co-activators are therefore not involved in the PBA-induced effects on gene expression.

[11] = tested on: CAMP mRNA in A497 (Human renal carcinoma cell line); test: CAMP gene expression by PBA in A497 cells; type: cell-based; conditions: 4 mM, 8, 24 and 48 hours
Experimental: as §1, §2

[12] = tested on: hBD-1 mRNA; test: hBD-1 mRNA expression in VA10 cells, real time RT-PCR; type: cell-based, human; conditions: 4 mM, 24 hours, compared with CAMP induction
Experimental: as §3, with “FIG. 11: Induction of hBD-1 mRNA expression by PBA. VA10” for “VA10”, “hours. hBD-1” for “hours.”, “levels” for “levels of the respective VDR co-activators”, “RT-PCR, CAMP induction shown for comparison.” for “RT-PCR.”, “from at least” for “from”
CAMP is not the only antimicrobial defense gene that is induced by PBA.

[13] = tested on: CAMP mRNA in HT-29 (Human colonic adenocarcinoma cell line); test: CAMP gene expression by PBA in HT-29 cells; type: cell-based; conditions: 4 mM, 8, 24 and 48 hours
Experimental: as §1, §2

[14] = tested on: acetylation of histone H3 and H4 at the CAMP gene proximal promoter; test: Histone H3 and H4 acetylation at the CAMP gene promoter, quantitative ChIP in VA10 cells; type: cell-based, human; conditions: 4 mM, 24 hours, listed as PBA
Experimental: FIG. 9: VA10 cells were stimulated with 4 mM of PBA or solvent alone (Control) for 24 hours. Acetylation of histone H3 and H4 was analyzed by quantitative ChIP using antibodies against the respective acetylated histones. Results were normalized to normal rabbit IgG and total input and plotted as fold precipitation over IgG. Normalized data is plotted as mean+SE from independent experiments (n=3).
The effect of PBA on acetylation of histone H3 and H4 by quantitative chromatin immunoprecipitation was assessed.

[15] = tested on: CAP-18 (the rabbit homologue to LL-37); test: Shigella infected rabbits treated with glyceryl tributyrate, CAP-18 immunohistochemistry; type: in vivo; conditions: oral, 47 μmol/kg twice daily for 3 days, Shigella flexneri 2a
Experimental: Animal model: Inbred New Zealand White rabbits of either gender weighing 1.8 to 2 kg were used for the study. The animals were individually caged in a room maintained at 22-25° C. Before inclusion in the study, health status of the rabbits was determined by physical examination, culture of stool and rectal swab specimens and fecal parasitic examination. Healthy coccidia-free rabbits that were also free of enteric pathogens (e.g. Salmonella, Shigella, Vibrio cholera) were studied. Rabbits were infected with Shigella and divided into two groups, one group was treated orally with glyceryl tributyrate and the other with saline. Expression of the CAP-18 peptide and its proform in colonic and rectal tissue specimens were analyzed in healthy rabbits, in untreated infected rabbits, in infected and healthy rabbits treated with glycerol tributyrate. For analyses of toxicity effects of glycerol tributyrate healthy rabbits were also treated with this compound.
Bacterial strain and inoculum preparation: The Shigella flexneri 2a strain was isolated from stool of a patient. The strain was positive for the Serény test and Congo red binding, reflecting invasive properties (Berkhoff, H. A. and Vinal, A. C., 1986, Avian Dis. 30, 117-121)) From this stock, bacteria were subcultured on trypticase soya agar (TSA; Becton Dickinson, Sparks, Md.) plates and cultured overnight at 37° C. […]

C[C@@H]1C[C@@H]([C@H](O)CC2CC(=O)NC(=O)C2)C(=O)[C@@H](C)C1 [CHX, cycloheximide]
PBA induced CAMP gene expression in presence of cycloheximide ([1]; 4 mM PBA): effectively blocked | butyrate induced CAMP gene expression in presence of cycloheximide ([1]; 4 mM butyrate): effectively blocked

CC(Cc1ccccc1)C(=O)O (stereo not drawn) [ST7, α-methylhydrocinnamate]
CAMP mRNA expression ([2]; VA10 cells, 24 hours): significantly increased

CCC(C)(C)C(=O)O [ST20, 2,2-dimethylbutyrate]
CAMP mRNA expression ([2]; VA10 cells, 24 hours): no apparent effect

N#CC(=C(/N)Sc1ccccc1N)/C(C#N)=C(\N)Sc1ccccc1N [U0126]
PBA induced CAMP gene expression in presence of inhibitor [3]: significantly reduced

CCCC(=O)[O-].[Na+] [butyrate, sodium butyrate]
CAP-18 in the surface epithelium [4]: significant upregulation | clinical illness and bacterial load in the stool [4]: reduced clinical illness and bacterial load in the stool | activity in stimulating production of defensin relative to isoleucine [5]: less active than isoleucine at similar concentrations | safety of topical (enema) dosing [6]: safe with no obvious side effects | safety of oral dosing ([6]; daily oral dose of 4 g, colonic-targeted tablets, 6 weeks, IBD patients): safe and well tolerated without any adverse effects | LL-37 mRNA expression [7]: increases

CC(C)C(=O)O [isobutyrate]
LL-37 mRNA expression [7]: increases

C=C1CC[C@H](O)C/C1=C/C=C1\CCC[C@]2(C)[C@@H]([C@H](C)CCCC(C)C)CC[C@@H]12 [oral vitamin D]
cathelicidin expression in AD lesional skin [8]: statistically significant increase

CCC(=O)O [propionate]
LL-37 mRNA expression [7]: increases

O=C([O-])CCCc1ccccc1.[Na+] [sodium 4-phenylbutyrate]
CAMP mRNA expression [9]: significantly increased | mRNA levels of VDR co-activator genes [10]: None of the genes were significantly upregulated | safety of topical (enema) dosing [6]: None of these studies reported any adverse effect or reactions | CAMP mRNA expression [11]: significantly increased | hBD-1 mRNA expression [12]: induced, although at lower level than CAMP | dose dependence of response at higher concentrations ([2]; 8 mM, earlier experiments, results not shown): ceased to be dose-dependent | LL-37 mRNA expression (fold-induction of CAMP mRNA) ([2]; VA10 cells, 2 mM, 24 hours, compared with sodium butyrate 2 mM and vitamin D3 100 nM): more effective inducer of LL-37 mRNA expression than butyrate or vitamin D | time and dose dependence of CAMP mRNA expression ([2]; VA10 cells, 4 mM over different time points, different concentrations for 24 hours): dependent on PBA dose and increased over time | CAMP mRNA expression [13]: significantly increased | histone H3 and H4 acetylation at the CAMP gene proximal promoter [14]: No significant differences; also recorded: No significant change

CCCC(=O)OCC(COC(=O)CCC)OC(=O)CCC [tributyrylglycerol, glyceryl tributyrate]
CAP-18 expression in surface epithelial cells of Shigella infected rabbits [15]: counteracted; also recorded: reverted and/or prevented
